# Experimental data published in US12478617B2, “Lipidated peptide inhibitors of interleukin-23 receptor” (JANSSEN BIOTECH, INC., priority 2021, dated 2025).
# pIC50: −log10 of the molar value. Starred links: 1 amine or outer side, 2 acyl side, 3 side chain; linkers in the order of their positions; H or OH if unused. Positions of bridges follow the written chain, without caps; N, C: chain ends. Non-standard residues stand in square brackets, D forms with d. Residues, ends and D or L forms follow the SMILES beside them. Groups on a side chain read outwards from the residue. *: point of attachment. Decanoyl(10-(4-HOOC-PhO)) = O=C(O)c1ccc(OCCCCCCCCCC(=O)*)cc1; X6 = C[N+](C)(CCNC(=O)CCCCCCCCCCCCCCCCC(=O)O)CC(=O)*; Trp(7-Me) = Cc1cccc2c(C[C@H](N)C(=O)O)c[nH]c12; d(γGlu) = O=C(O)[C@@H](CCC(=O)[*:2])N[*:1]; C18 diacid = O=C(O)CCCCCCCCCCCCCCCCC(=O)*; C16 diacid = O=C(O)CCCCCCCCCCCCCCC(=O)*; γGlu = O=C(O)[C@H](CCC(=O)[*:2])N[*:1]; 2Nal = N[C@@H](Cc1ccc2ccccc2c1)C(=O)O; AEF = NCCOc1ccc(C[C@H](N)C(=O)O)cc1; 3Pal = N[C@@H](Cc1cccnc1)C(=O)O; NMeK = CN[C@@H](CCCCN)C(=O)O; Pen = CC(C)(S)[C@H](N)C(=O)O; Thp = NC1(C(=O)O)CCOCC1; AEEA = NCCOCCOCC(=O)O; Sar = CNCC(=O)O
# Biological target: T1, IL-23R (Homo sapiens, UniProt Q5VWK5)
# T1 construct: HEK293 cells containing IL-23R, IL-12RP31 and a firefly luciferase reporter gene driven by a STAT-inducible promoter (Promega); host or cells: HEK293
# T1 sequence (Q5VWK5 24-629): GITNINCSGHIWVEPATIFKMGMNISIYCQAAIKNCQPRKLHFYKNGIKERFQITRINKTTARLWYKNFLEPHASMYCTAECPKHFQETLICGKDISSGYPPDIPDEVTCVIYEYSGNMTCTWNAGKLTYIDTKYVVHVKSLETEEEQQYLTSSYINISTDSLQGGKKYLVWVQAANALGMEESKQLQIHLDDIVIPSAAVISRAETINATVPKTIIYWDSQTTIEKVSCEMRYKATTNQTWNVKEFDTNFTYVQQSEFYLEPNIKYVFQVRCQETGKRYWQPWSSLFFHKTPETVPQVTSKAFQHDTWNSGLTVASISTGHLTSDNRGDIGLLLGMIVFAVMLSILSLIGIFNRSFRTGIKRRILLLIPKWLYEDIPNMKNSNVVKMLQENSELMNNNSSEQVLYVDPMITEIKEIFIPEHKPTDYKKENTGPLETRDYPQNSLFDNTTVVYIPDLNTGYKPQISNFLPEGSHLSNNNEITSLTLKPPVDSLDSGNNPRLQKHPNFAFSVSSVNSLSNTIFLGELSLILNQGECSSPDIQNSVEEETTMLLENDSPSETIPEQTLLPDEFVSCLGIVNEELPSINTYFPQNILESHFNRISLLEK
# Experiment: IL23R Reporter Assay
# Assay type: cell-based
# Conditions: not given
# In short: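 Reporter cells read out IL-23-driven STAT3 activation; compounds were serially diluted in DMSO. After 5 h at 37 °C, 5% CO2, cells were brought to 20 °C and luminescence was measured with BioGlo reagent.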
row,pIC50,Molecule
1,10.00,"CC(=O)NCCCC[C@@H]1NC(=O)[C@H](Cc2c[nH]c3c(C)cccc23)NC(=O)[C@H]([C@@H](C)O)NC(=O)[C@H](CCCCNC(=O)COCCOCCNC(=O)COCCOCCNC(=O)CC[C@H](NC(=O)CCCCCCCCCCCCCCCCC(=O)O)C(=O)O)NC(=O)[C@@H](NC(=O)[C@@H](CCCNC(=N)N)NC(C)=O)C(C)(C)SSC(C)(C)[C@@H](C(=O)N[C@@H](Cc2ccc(OCCN)cc2)C(=O)N[C@@H](Cc2ccc3ccccc3c2)C(=O)NC2(C(=O)N[C@@H](CCCCNC(C)=O)C(=O)N[C@@H](CC(N)=O)C(=O)N[C@@H](Cc3cccnc3)C(=O)N(C)CC(N)=O)CCOCC2)NC1=O [Example 50, MeCO-r-Pen*-K(PEG2PEG2gEC18OH)-T-7MeW-K(Ac)-Pen*-AEF-2Nal-THP-K(Ac)-N-3Pya-Sar-CONH2] (Ac-[dR][Pen]K([AEEA-AEEA-γGlu-C18 diacid])T[Trp(7-Me)]K(Ac)[Pen][AEF][2Nal][Thp]K(Ac)N[3Pal][Sar]-NH2; disulfide 2-7)"
2,9.89,"CC(=O)NCCCC[C@@H]1NC(=O)[C@H](Cc2c[nH]c3c(C)cccc23)NC(=O)[C@H]([C@@H](C)O)NC(=O)[C@H](CC(N)=O)NC(=O)[C@@H](NC(=O)[C@@H](CCCNC(=N)N)NC(C)=O)C(C)(C)SSC(C)(C)[C@@H](C(=O)N[C@@H](Cc2ccc(OCCN)cc2)C(=O)N[C@@H](Cc2ccc3ccccc3c2)C(=O)NC2(C(=O)N[C@@H](CCCCNC(=O)COCCOCCNC(=O)COCCOCCNC(=O)CC[C@@H](NC(=O)CCCCCCCCCCCCCCCCC(=O)O)C(=O)O)C(=O)N[C@@H](CC(N)=O)C(=O)N[C@@H](Cc3cccnc3)C(=O)N(C)CC(N)=O)CCOCC2)NC1=O [Example 55, MeCO-r-Pen*-N-T-7MeW-K(Ac)-Pen*-AEF-2Nal-THP-K(PEG2PEG2DgEC18OH)-N-3Pya-Sar-CONH2] (Ac-[dR][Pen]NT[Trp(7-Me)]K(Ac)[Pen][AEF][2Nal][Thp]K([AEEA-AEEA-d(γGlu)-C18 diacid])N[3Pal][Sar]-NH2; disulfide 2-7)"
3,10.59,"CC(=O)NCCCC[C@@H]1NC(=O)[C@H](Cc2c[nH]c3c(C)cccc23)NC(=O)[C@H]([C@@H](C)O)NC(=O)[C@H](CC(N)=O)NC(=O)[C@@H](NC(=O)[C@@H](CCCNC(=N)N)NC(C)=O)C(C)(C)SSC(C)(C)[C@@H](C(=O)N[C@@H](Cc2ccc(OCCN)cc2)C(=O)N[C@@H](Cc2ccc3ccccc3c2)C(=O)NC2(C(=O)N[C@@H](CCC(=O)O)C(=O)N[C@@H](CC(N)=O)C(=O)N[C@@H](Cc3cccnc3)C(=O)N(C)[C@@H](CCCCNC(=O)COCCOCCNC(=O)COCCOCCNC(=O)CC[C@H](NC(=O)CCCCCCCCCCCCCCC(=O)O)C(=O)O)C(N)=O)CCOCC2)NC1=O [Example 22, MeCO-r-Pen*-N-T-7MeW-K(Ac)-Pen*-AEF-2Nal-THP-E-N-3Pya-NMeK(PEG2PEG2gEC16OH)-CONH2] (Ac-[dR][Pen]NT[Trp(7-Me)]K(Ac)[Pen][AEF][2Nal][Thp]EN[3Pal][NMeK]([AEEA-AEEA-γGlu-C16 diacid])-NH2; disulfide 2-7)"
4,10.08,"CC(=O)NCCCC[C@@H]1NC(=O)[C@H](Cc2c[nH]c3c(C)cccc23)NC(=O)[C@H]([C@@H](C)O)NC(=O)[C@H](CCCCNC(=O)COCCOCCNC(=O)COCCOCCNC(=O)CC[C@H](NC(=O)CCCCCCCCCCCCCCCCC(=O)O)C(=O)O)NC(=O)[C@@H](NC(C)=O)C(C)(C)SSC(C)(C)[C@@H](C(=O)N[C@@H](Cc2ccc(OCCN)cc2)C(=O)N[C@@H](Cc2ccc3ccccc3c2)C(=O)NC2(C(=O)N[C@@H](CCCCNC(C)=O)C(=O)N[C@@H](CC(N)=O)C(=O)N[C@@H](Cc3cccnc3)C(=O)N(C)CC(N)=O)CCOCC2)NC1=O [Example 122, MeCO-Pen*-K(PEG2PEG2gEC18OH)-T-7MeW-K(Ac)-Pen*-AEF-2Nal-THP-K(Ac)-N-3Pya-Sar-CONH2] (Ac-[Pen]K([AEEA-AEEA-γGlu-C18 diacid])T[Trp(7-Me)]K(Ac)[Pen][AEF][2Nal][Thp]K(Ac)N[3Pal][Sar]-NH2; disulfide 1-6)"
5,10.32,"CC(=O)NCCCC[C@@H]1NC(=O)[C@H](Cc2c[nH]c3c(C)cccc23)NC(=O)[C@H]([C@@H](C)O)NC(=O)[C@H](CC(N)=O)NC(=O)[C@@H](NC(C)=O)C(C)(C)SSC(C)(C)[C@@H](C(=O)N[C@@H](Cc2ccc(OCCN)cc2)C(=O)N[C@@H](Cc2ccc3ccccc3c2)C(=O)NC2(C(=O)N[C@@H](CCCCNC(=O)COCCOCCNC(=O)COCCOCCNC(=O)CC[C@H](NC(=O)CCCCCCCCCOc3ccc(C(=O)O)cc3)C(=O)O)C(=O)N[C@@H](CC(N)=O)C(=O)N[C@@H](Cc3cccnc3)C(=O)N(C)CC(N)=O)CCOCC2)NC1=O [Example 111, MeCO-Pen*-N-T-7MeW-K(Ac)-Pen*-AEF-2Nal-THP-K(PEG2PEG2gEpXOH)-N-3Pya-Sar-CONH2] (Ac-[Pen]NT[Trp(7-Me)]K(Ac)[Pen][AEF][2Nal][Thp]K([AEEA-AEEA-γGlu-Decanoyl(10-(4-HOOC-PhO))])N[3Pal][Sar]-NH2; disulfide 1-6)"
6,10.05,"CC(=O)NCCCC[C@@H]1NC(=O)[C@H](Cc2c[nH]c3c(C)cccc23)NC(=O)[C@H]([C@@H](C)O)NC(=O)[C@H](CC(N)=O)NC(=O)[C@@H](NC(C)=O)C(C)(C)SSC(C)(C)[C@@H](C(=O)N[C@@H](Cc2ccc(OCCN)cc2)C(=O)N[C@@H](Cc2ccc3ccccc3c2)C(=O)NC2(C(=O)N[C@@H](CCCCNC(=O)COCCOCCNC(=O)COCCOCCNC(=O)[C@@H]3CCCN3C(=O)CC[C@H](NC(=O)CCCCCCCCCCCCCCCCC(=O)O)C(=O)O)C(=O)N[C@@H](CC(N)=O)C(=O)N[C@@H](Cc3cccnc3)C(=O)N(C)CC(N)=O)CCOCC2)NC1=O [Example 105, MeCO-Pen*-N-T-7MeW-K(Ac)-Pen*-AEF-2Nal-THP-K(PEG2PEG2PgEC18OH)-N-3Pya-Sar-CONH2] (Ac-[Pen]NT[Trp(7-Me)]K(Ac)[Pen][AEF][2Nal][Thp]K([AEEA-AEEA-Pro-γGlu-C18 diacid])N[3Pal][Sar]-NH2; disulfide 1-6)"
7,9.89,"CC(=O)NCCCC[C@@H]1NC(=O)[C@H](Cc2c[nH]c3c(C)cccc23)NC(=O)[C@H]([C@@H](C)O)NC(=O)[C@H](CC(N)=O)NC(=O)[C@@H](NC(=O)[C@@H](CCCNC(=N)N)NC(C)=O)C(C)(C)SSC(C)(C)[C@@H](C(=O)N[C@@H](Cc2ccc(OCCN)cc2)C(=O)N[C@@H](Cc2ccc3ccccc3c2)C(=O)NC2(C(=O)N[C@@H](CCCCNC(C)=O)C(=O)N[C@@H](CC(N)=O)C(=O)N[C@@H](Cc3cccnc3)C(=O)N(C)[C@@H](CCCCNC(=O)COCCOCCNC(=O)COCCOCCNC(=O)CC[C@H](NC(=O)CCCCCCCCCCCCCCCCC(=O)O)C(=O)O)C(N)=O)CCOCC2)NC1=O [Example 54, MeCO-r-Pen*-N-T-7MeW-K(Ac)-Pen*-AEF-2Nal-THP-K(Ac)-N-3Pya-NMeK(PEG2PEG2gEC18OH)-CONH2] (Ac-[dR][Pen]NT[Trp(7-Me)]K(Ac)[Pen][AEF][2Nal][Thp]K(Ac)N[3Pal][NMeK]([AEEA-AEEA-γGlu-C18 diacid])-NH2; disulfide 2-7)"
8,9.85,"CC(=O)NCCCC[C@@H]1NC(=O)[C@H](Cc2c[nH]c3c(C)cccc23)NC(=O)[C@H]([C@@H](C)O)NC(=O)[C@H](CC(N)=O)NC(=O)[C@@H](NC(C)=O)C(C)(C)SSC(C)(C)[C@@H](C(=O)N[C@@H](Cc2ccc(OCCN)cc2)C(=O)N[C@@H](Cc2ccc3ccccc3c2)C(=O)NC2(C(=O)N[C@@H](CCCCNC(=O)COCCOCCNC(=O)COCCOCCNC(=O)CC[C@H](NC(=O)CCCCCCCCCCCCCCCCCCC(=O)O)C(=O)O)C(=O)N[C@@H](CC(N)=O)C(=O)N[C@@H](Cc3cccnc3)C(=O)N(C)CC(N)=O)CCOCC2)NC1=O [Example 36, MeCO-Pen*-N-T-7MeW-K(Ac)-Pen*-AEF-2Nal-THP-K(PEG2PEG2gEC20OH)-N-3Pya-Sar-CONH2]"
9,10.14,"CC(=O)NCCCC[C@@H]1NC(=O)[C@H](Cc2c[nH]c3c(C)cccc23)NC(=O)[C@H]([C@@H](C)O)NC(=O)[C@H](CC(N)=O)NC(=O)[C@@H](NC(C)=O)C(C)(C)SSC(C)(C)[C@@H](C(=O)N[C@@H](Cc2ccc(OCCN)cc2)C(=O)N[C@@H](Cc2ccc3ccccc3c2)C(=O)NC2(C(=O)N[C@@H](CCCCNC(=O)COCCOCCNC(=O)COCCOCCNC(=O)CC[C@H](NC(=O)C[N+](C)(C)CCNC(=O)CCCCCCCCCCCCCCCCC(=O)O)C(=O)O)C(=O)N[C@@H](CC(N)=O)C(=O)N[C@@H](Cc3cccnc3)C(=O)N(C)CC(N)=O)CCOCC2)NC1=O [Example 123, MeCO-Pen*-N-T-7MeW-K(Ac)-Pen*-AEF-2Nal-THP-K(PEG2PEG2 gE SP6 C18OH)-N-3Pya-Sar-CONH2] (Ac-[Pen]NT[Trp(7-Me)]K(Ac)[Pen][AEF][2Nal][Thp]K([AEEA-AEEA-γGlu-X6])N[3Pal][Sar]-NH2; disulfide 1-6)"

# Same assay, conditions: IL23R reporter assay, HEK293 cells with IL-23R and STAT-inducible luciferase reporter, 10 ng/mL IL-23, 5 h; Table 5b 'IL-23 Binding Data'
row,pIC50,Molecule
1,5.89,MeCO-r-Pen(3)-N15-T-7MeW-K(Ac)-Pen(3)-AEF-2Nal-THP-E-N15-3Pya-Sar-K(PEG2PEG2gEC18OH)-CONH2 [Compound 354]
